{"source": "patent US5480914A", "about": "“Nonaqueous thixotropic drug delivery suspensions and methods of their use” (priority 1994, dated 1996)", "key": {"[1]": {"assay": "Stability of drugs and suspensions after gamma irradiation (chromatographic analysis)", "experimental": "Aseptic formulation of thixotropic pharmaceutical compositions was conducted in accordance with the teachings of the present invention as follows. […] Following the sizing operation, each individual drug was divided into lots, which were then placed in an atmosphere of either argon or air. Each lot was then sterilized using 1.0 or 2.5 Mrad of gamma radiation applied to the lots of each drug under argon or air. Concomitantly, colloidal silicon dioxide was sterilized using dry heat while perfluorodecalin was sterile filtered. The three components were then combined aseptically and blended using a high shear dispenser. The thixotropic pharmaceutical compositions were then analyzed by chromatographic techniques to determine the effect of gamma radiation on the stability of the ten drugs sterilized either in air or in the argon environment."}, "rabbit eyes [2]": {"tested_on": "rabbit eyes", "assay": "Pupil diameter change after pilocarpine", "assay_type": "in vivo", "experimental": "Three different concentrations of pilocarpine were formulated as prior art aqueous solutions and as exemplary nonaqueous thixotropic pharmaceutical compositions according to the teachings of the present invention. Specifically, aqueous solutions and nonaqueous suspensions of 0, 0.1%, 0.5% and 2% pilocarpine were formulated under sterile conditions. The nonaqueous drug suspensions were made using 0.5% CSD uniformly dispersed in perfluorodecalin. Both sets of formulations were administered to rabbit eyes in drop volumes of 8 μl using positive displacement pipettes. Changes in pupil diameter were monitored with three rabbits being used for each concentration of each formulation. In particular, FIG. 12A illustrates the effects of the three different concentrations of […] administered using the nonaqueous vehicle while FIG. 12B illustrates equivalent data for the prior art solubilized aqueous pilocarpine."}, "[3]": {"details": "cited from earlier work; for Density / Kin. viscosity / Specific heat / Surface tension: 25° C.; for Boiling point: ambient pressure"}, "glaucomatous monkeys [4]": {"tested_on": "glaucomatous monkeys", "assay": "Intraocular pressure after levo-bunolol in conscious, glaucomatous monkeys", "assay_type": "in vivo, monkey", "details": "0.25% w/v, 8 μl thixotropic versus approximately 35 μl aqueous", "experimental": "(§1) To illustrate the high localized drug bioavailability and correspondingly low systemic side effects of the present invention, a pharmacology study was conducted on conscious, glaucomatous monkeys. Formulations of 0.25% w/v levo-bunolol, used to reduce intraocular pressure in glaucoma patients, were administered as an aqueous solution and as a thixotropic pharmaceutical composition made in accordance with the teachings of the present invention. The monkeys were monitored for reductions in intraocular pressure, indicating the desired localized drug action, and for changes in heart rate, indicating undesirable drug migration away from the target site and into the systemic circulation. The thixotropic compositions were administered in low dose volume 8 μl drops while the aqueous formulations were administered in prior art drop volumes of approximately 35 μl. FIG. 13A is the mean reduction in heart rate for the monkeys treated with the aqueous solution of the drug while FIG. 13B is the mean reduction in heart rate for the monkeys treated with the nonaqueous formulation."}, "glaucomatous monkeys [5]": {"tested_on": "glaucomatous monkeys", "assay": "Heart rate after topical levo-bunolol in conscious, glaucomatous monkeys", "assay_type": "in vivo, monkey", "experimental": "as §1"}, "rabbit eyes [6]": {"tested_on": "rabbit eyes", "description": "As a control, an aqueous solution containing the same amount of drug was prepared. The final concentration of the brimonidine in both formulations was 0.1% w/v. The nonaqueous thixotropic compositions of the present invention were administered in a low dose volume of 8 μl, while the prior art aqueous control was administered in a volume of 50 μl. The drugs were administered to one eye of the rabbit with both eyes subsequently monitored for changes in intraocular pressure."}, "[7]": {"assay": "Flow curve analysis fitted to the Cross model (viscosity, yield stress)", "assay_type": "physicochemical", "experimental": "In order to determine the stress threshold at which the CSD network collapsed, stress sweeps were run on the five dispersions formulated in Example 1. The stress sweeps were conducted using a Carri-med and CNMR CS 100 rheometer with an optical encoder upgrade. The measuring geometry for all the CSD/perfluorodecalin dispersions was a 4 cm SS Flat Plate with solvent trap. The gap, selected after conducting probe studies using the 2.5% w/v CSD/perfluorodecalin dispersion, was set at 250 μm for the stress sweeps. The measuring geometry for perfluorodecalin was a recessed concentric cylinder and cup set at a 4 mm gap. These stress studies were run at 15° C. to minimize the evaporation of perfluorodecalin. For longer experiments (greater than 10 minutes), a cover was placed over the Flat Plate to prevent perfluorodecalin vaporization. FIG. 1 plots delta versus shear stress for each of the dispersions. Delta is the phase of the actual curve relative to the applied sinusoidal stress. […] This stress threshold is CSD concentration dependent and indicates the presence of an elastic three-dimensional network at low or resting stresses (i.e. low delta values). […]\nTo further characterize the rheology of the dispersions formulated in Example 1, complete flow curves, fit to the Cross model, were generated over a broad range of shear rates. […] Yield stresses were calculated from flow curve data."}, "[8]": {"tested_on": "eyes of New Zealand albino rabbits", "assay": "Ocular toxicity of CSD in perfluorodecalin, gross and slit lamp examination", "assay_type": "in vivo, rabbit", "experimental": "More specifically, CSD dispersions of 2% w/v, 1% w/v and 0.5% w/v were prepared as in Example 1 and topically administered to the rabbits six times, at one hour intervals. Dose volumes of 8 μl were used for each dispersion along with a perfluorodecalin control. Following the six topical installations, each of the eyes was subjected to gross and slit lamp examination."}, "CHO cells": {"tested_on": "CHO cells", "assay": "Chinese hamster ovary (CHO) clonal cytotoxicity assay", "assay_type": "cell-based", "details": "three-hour exposure", "experimental": "To confirm the lack of toxicity associated with the thixotropic compositions of the present invention, a Chinese hamster ovary (CHO) clonal assay was performed to measure the cytotoxic effects of CSD and perfluorodecalin on cell viability. As is well-known in the art, the CHO clonal assay is extremely sensitive and is often used to test pharmaceutical composition toxicity. Different cell populations were exposed to 0.5% w/v CSD in perfluorodecalin, and from 0.01% to 0.1% w/v AGN 191053 dispersed in a suspension of 0.5% w/v CSD in perfluorodecalin. Straight perfluorodecalin was used as a negative control with a three-hour exposure period for each formulation tested."}, "[9]": {"details": "1.0 or 2.5 Mrad, under argon or air"}}, "note": "Entries after “also recorded” stand apart in the source; their conditions may differ. Structures can show the parent of a compound that is named as a salt. Where two headings read alike, the source gives them in different places.", "data": [{"smiles": "CC(C)(C)NC[C@H](O)COc1cccc2c1CCCC2=O", "note": "[levo-bunolol HCl]", "values": [{"measurement": "activity lost after gamma radiation", "setting": "[1]", "value": "No more than 5%"}]}, {"smiles": "Brc1c(NC2=NCCN2)ccc2nccnc12", "note": "[AGN 190342]", "values": [{"measurement": "activity lost after gamma radiation", "setting": "[1]", "value": "No more than 5%"}]}, {"smiles": "CC[C@@H]1C(=O)OC[C@@H]1Cc1cncn1C", "note": "[pilocarpine]", "values": [{"measurement": "recovery period of pupil diameter", "setting": "rabbit eyes [2]; nonaqueous formulation versus aqueous", "value": "prolonged recovery period"}, {"measurement": "reduction in pupil size", "setting": "rabbit eyes [2]; nonaqueous thixotropic versus aqueous, equivalent drug concentrations, 8 μl", "value": "greater pharmaceutical effect, i.e. a reduction in pupil size"}]}, {"smiles": "O=C(O)c1cc(=O)c2c(OCC(O)COc3cccc4oc(C(=O)O)cc(=O)c34)cccc2o1", "note": "[sodium cromoglycate]", "values": [{"measurement": "activity lost after gamma radiation", "setting": "[1]", "value": "No more than 5%"}]}, {"smiles": "Cc1nnc(SCC2=C(C(=O)O)N3C(=O)[C@@H](NC(=O)Cn4cnnn4)[C@H]3SC2)s1", "note": "[sodium cephazolin]", "values": [{"measurement": "activity lost after gamma radiation", "setting": "[1]", "value": "No more than 5%"}]}, {"smiles": "CNCC(O)c1ccc(OC(=O)C(C)(C)C)c(OC(=O)C(C)(C)C)c1", "note": "(centres unmarked) [dipivalylepinephrine HCl]", "values": [{"measurement": "activity lost after gamma radiation", "setting": "[1]", "value": "No more than 5%"}]}, {"smiles": "FC1(F)C(F)(F)C(F)(F)C2(F)C(F)(C1(F)F)C(F)(F)C(F)(F)C1(F)C(F)(F)C(F)(F)C(F)(F)C(F)(F)C12F", "note": "(centres unmarked) [PPP, perfluoroperhydrophenanthrene]", "values": [{"measurement": "Density", "setting": "[3]", "value": 2.016, "unit": "gms/mL"}, {"measurement": "Kin. viscosity", "setting": "[3]", "value": 8.0, "unit": "cSt"}, {"measurement": "Specific heat", "setting": "[3]", "value": 0.27, "unit": "g-cal/gm"}, {"measurement": "Surface tension", "setting": "[3]", "value": 21.6, "unit": "dynes/cm"}, {"measurement": "Boiling point", "setting": "[3]", "value": 215, "unit": "°C"}]}, {"smiles": "CC(=O)OCC(=O)[C@@]1(O)CC[C@H]2[C@@H]3CCC4=CC(=O)C=C[C@]4(C)[C@H]3[C@@H](O)C[C@@]21C", "note": "[prednisolone acetate]", "values": [{"measurement": "activity lost after gamma radiation", "setting": "[1]; [9]", "value": "No more than 5%"}]}, {"smiles": "CC1COc2c(N3CCN(C)CC3)c(F)cc3c(=O)c(C(=O)O)cn1c23", "note": "(centres unmarked) [ofloxacin]", "values": [{"measurement": "activity lost after gamma radiation", "setting": "[1]", "value": "No more than 5%"}]}, {"smiles": "CC(C)(C)NC[C@H](O)COc1nsnc1N1CCOCC1", "note": "[timolol]", "values": [{"measurement": "activity lost after gamma radiation", "setting": "[1]; [9]", "value": "No more than 5%"}]}, {"smiles": "CC(C)(C)NC[C@H](O)COc1cccc2c1CCCC2=O", "note": "[levo-bunolol]", "values": [{"measurement": "reduction in intraocular pressure, thixotropic versus aqueous", "setting": "glaucomatous monkeys [4]", "value": "almost identical"}, {"measurement": "decrease in heart rate, thixotropic relative to aqueous solution", "setting": "glaucomatous monkeys [5]; 0.25% w/v, 8 μl thixotropic versus approximately 35 μl aqueous", "value": 65, "unit": "%"}, {"measurement": "heart rate response", "setting": "glaucomatous monkeys [5]; prior art aqueous delivery vehicle", "value": "undesirable decrease in heart rate"}]}, {"smiles": "CC(C(=O)O)c1ccc(-c2ccccc2)c(F)c1", "note": "(centres unmarked) [sodium flurbiprofen]", "values": [{"measurement": "activity lost after gamma radiation", "setting": "[1]", "value": "No more than 5%"}]}, {"smiles": "O", "note": "[Water]", "values": [{"measurement": "Density", "setting": "[3]", "value": 1.000, "unit": "gms/mL"}, {"measurement": "Kin. viscosity", "setting": "[3]", "value": 1.00, "unit": "cSt"}, {"measurement": "Specific heat", "setting": "[3]", "value": 1.00, "unit": "g-cal/gm"}, {"measurement": "Surface tension", "setting": "[3]", "value": 72.0, "unit": "dynes/cm"}]}, {"smiles": "Brc1c(NC2=NCCN2)ccc2nccnc12", "note": "[brimonidine]", "values": [{"measurement": "peak mean intraocular pressure reduction, treated eye", "setting": "rabbit eyes [6]; 0.1% w/v, 8 μl thixotropic versus 50 μl aqueous", "value": "comparable to the much larger aqueous based prior art dosage"}, {"measurement": "intraocular pressure response, untreated eye", "setting": "rabbit eyes [6]; aqueous solution 0.1% w/v, 50 μl", "value": "undesirable pressure reduction in untreated eyes"}, {"measurement": "intraocular pressure response, untreated eye", "setting": "rabbit eyes [6]; thixotropic composition 0.1% w/v, 8 μl, versus aqueous control", "value": "significantly less intraocular pressure response in the untreated eye; also recorded: significant lower decrease in intraocular pressure in the untreated eyes"}]}, {"smiles": "FC1(F)C(F)(F)C(F)(F)C2(F)C(F)(F)C(F)(F)C(F)(F)C(F)(F)C2(F)C1(F)F", "note": "(centres unmarked) [perfluorodecalin, Perfluoro(decahydronaphthalene)]", "values": [{"measurement": "viscosity of pure perfluorodecalin without CSD", "setting": "[7]", "value": 9.2, "unit": "centipoise"}, {"measurement": "Newtonian viscosity", "setting": "[7]; 0% CSD", "value": 0.092, "unit": "poise"}, {"measurement": "Density", "setting": "[3]", "value": 1.929, "unit": "gms/mL"}, {"measurement": "Kin. viscosity", "setting": "[3]", "value": 2.9, "unit": "cSt"}, {"measurement": "Specific heat", "setting": "[3]", "value": 0.22, "unit": "g-cal/gm"}, {"measurement": "Surface tension", "setting": "[3]", "value": 19.3, "unit": "dynes/cm"}, {"measurement": "Boiling point", "setting": "[3]", "value": 142, "unit": "°C"}, {"measurement": "specific gravity", "setting": "[3]; used to convert drop weight to volume", "value": 1.93, "unit": "g/mL"}, {"measurement": "toxicity (cornea)", "setting": "[8]; 6 topical doses of 8 μl at one hour intervals", "value": "no discomfort, irritation, or toxicity"}, {"measurement": "eye discomfort", "setting": "[8]; rabbit, in vivo", "value": "no discomfort, irritation, or toxicity"}, {"measurement": "irritation (conjunctiva)", "setting": "[8]; rabbit, in vivo", "value": "no discomfort, irritation, or toxicity"}, {"measurement": "chemical toxicity to CHO cells", "setting": "CHO cells", "value": "Neither the perfluorodecalin nor the CSD/perfluorodecalin formulations exhibited any chemical toxicity"}]}]}
